Consider 29 compounds from US9676701B2, “Cyclopropylamine derivatives useful as LSD1 inhibitors” (Oryzon Genomics, S.A., priority 2010, dated 2017).

Assay [1] deals with T1, Human recombinant LSD1 protein (Homo sapiens (Human), UniProt O60341). Particulars: for Ki: read-out: LSD1 (Ki).
From the text: (§1) The ability of the compounds of the invention to inhibit LSD1 can be tested as follows. Human recombinant LSD1 protein was purchased from BPS Bioscience Inc. In order to monitor LSD1 enzymatic activity and/or its inhibition rate by our inhibitor(s) of interest, di-methylated H3-K4 peptide (Millipore) was chosen as a substrate. The demethylase activity was estimated, under aerobic conditions, by measuring the release of H2O2 produced during the catalytic process, using the Amplex® Red peroxide/peroxidase-coupled assay kit (Invitrogen).
(§2) Within the experiment, each concentration of inhibitor was tested in triplicate. […] The enzymatic reactions were set up in a 50 mM sodium phosphate, pH 7.4 buffer. At the end of the incubation, Amplex® Red reagent and horseradish peroxidase (HPR) solution were added to the reaction according to the recommendations provided by the supplier (Invitrogen), and left to incubate for 30 extra minutes at room temperature in the dark. A 1 μM H2O2 solution was used as a control of the kit efficiency.
(§3) The Ki (IC50) of each inhibitor was estimated at half of the maximum activity.
Assay [2] addresses T2, MAO-A (Homo sapiens (Human), UniProt P21397). The note with it: read-out: MAO-A (Ki).
In the next assay the target is MAO-B (Homo sapiens (Human), UniProt P27338). The note with it: read-out: MAO-B (Ki).
Sequence of MAO-B (P27338 whole entry): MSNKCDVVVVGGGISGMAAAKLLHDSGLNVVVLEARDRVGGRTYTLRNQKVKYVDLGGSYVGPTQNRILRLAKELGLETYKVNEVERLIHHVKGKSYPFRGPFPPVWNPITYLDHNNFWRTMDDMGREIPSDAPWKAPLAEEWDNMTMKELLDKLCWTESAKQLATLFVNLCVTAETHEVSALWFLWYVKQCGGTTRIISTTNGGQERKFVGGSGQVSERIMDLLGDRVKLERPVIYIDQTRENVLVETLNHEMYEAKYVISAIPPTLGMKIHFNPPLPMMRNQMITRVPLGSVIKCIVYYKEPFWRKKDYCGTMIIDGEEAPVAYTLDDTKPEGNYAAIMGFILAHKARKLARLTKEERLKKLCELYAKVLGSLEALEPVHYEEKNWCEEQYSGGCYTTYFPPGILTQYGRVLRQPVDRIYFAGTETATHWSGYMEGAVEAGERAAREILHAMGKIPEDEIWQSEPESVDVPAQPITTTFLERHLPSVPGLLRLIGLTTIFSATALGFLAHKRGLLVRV
The target in assay [3] is T1, Human recombinant LSD1 protein. The experiment in a line: biochemical.
From the text: as §1, §2, §3
Assay [4] deals with T2, MAO-A. The experiment in a line: biochemical.

Each structure is given as a SMILES string. Where a name gives a salt, the structure may show the parent alone. Read-outs that look alike come from different tables or passages of the source.

T2 sequence (P21397 whole entry): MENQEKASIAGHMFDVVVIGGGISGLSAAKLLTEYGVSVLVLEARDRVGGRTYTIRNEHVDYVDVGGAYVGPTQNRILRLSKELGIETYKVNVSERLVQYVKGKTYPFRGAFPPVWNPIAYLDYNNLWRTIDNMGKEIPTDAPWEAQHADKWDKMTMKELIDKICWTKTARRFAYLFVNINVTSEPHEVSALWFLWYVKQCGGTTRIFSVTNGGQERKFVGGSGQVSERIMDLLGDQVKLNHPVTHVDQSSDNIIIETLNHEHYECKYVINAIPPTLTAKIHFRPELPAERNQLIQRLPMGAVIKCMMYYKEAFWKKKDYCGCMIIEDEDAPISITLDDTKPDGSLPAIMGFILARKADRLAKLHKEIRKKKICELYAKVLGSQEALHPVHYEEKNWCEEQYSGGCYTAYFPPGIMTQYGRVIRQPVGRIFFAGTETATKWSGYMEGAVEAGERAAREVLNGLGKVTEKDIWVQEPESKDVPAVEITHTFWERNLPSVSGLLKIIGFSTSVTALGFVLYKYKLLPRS

As a reminder, the Ki is a measure of affinity in units of concentration, obtained from inhibition or displacement. On to `NC(=O)c1ccc(-c2ccc([C@H]3C[C@@H]3N)cn2)cc1` (relative stereo) [Example 18, 4-(5-((trans)-2-aminocyclopropyl)pyridin-2-yl)benzamide hydrochloride], for which the Ki (in assay [1]; on MAO-A [2]; on MAO-B) was 1000 to 40000 nM in each case.

As for `Cc1cc([C@H]2C[C@@H]2N)cnc1-c1cccc(Cl)c1` (relative stereo) [Example 36, (trans)-2-(6-(3-chlorophenyl)-5-methylpyridin-3-yl)cyclopropanamine], the Ki (in assay [1]; on MAO-A [2]; on MAO-B) was 1000 to 40000 nM each time.

As for `Cc1cc([C@H]2C[C@@H]2N)cnc1-c1cccc(C(F)(F)F)c1` (relative stereo) [Example 37, (trans)-2-(5-methyl-6-(3-(trifluoromethyl)phenyl)pyridin-3-yl)cyclopropanamine hydrochloride], the Ki (in assay [1]; at MAO-A [2]; at MAO-B) was 1000 to 40000 nM in each case.

For the compound `N[C@H]1C[C@@H]1c1ccc(-c2cc(C(F)(F)F)ccc2Cl)nc1` (relative stereo) [Example 50, (trans)-2-(6-(2-chloro-5-(trifluoromethyl)phenyl)pyridin-3-yl)cyclopropanamine hydrochloride], the Ki on MAO-A [2] was 1000 to 40000 nM; at MAO-B, 1000 to 40000 nM; in assay [3] it was 100 to 1000 nM.

In the case of `CC(=O)Nc1cccc(-c2ccc([C@H]3C[C@@H]3N)cn2)c1` (relative stereo) [Example 52, N-(3-(5-((trans)-2-aminocyclopropyl)pyridin-2-yl)phenyl)acetamide hydrochloride], the Ki was 1000 to 40000 nM on MAO-A [2], 1000 to 40000 nM on MAO-B and 100 to 1000 nM in assay [3].

Take `N[C@H]1C[C@@H]1c1ccc(-c2cc3ccccc3s2)nc1` (relative stereo) [Example 54, (trans)-2-(6-(benzo[b]thiophen-2-yl)pyridin-3-yl)cyclopropanamine hydrochloride]: the figures for the inhibition constant (Ki) (on MAO-A [2]; on MAO-B; in assay [3]) were 1000 to 40000 nM, 1000 to 40000 nM and 100 to 1000 nM, respectively.

As for `N[C@H]1C[C@@H]1c1ccc(-c2csc3ccccc23)nc1` (relative stereo) [Example 55, (trans)-2-(6-(benzo[b]thiophen-3-yl)pyridin-3-yl)cyclopropanamine hydrochloride], the inhibition constant (Ki) lay in the range of 1000 to 40000 nM on MAO-A [2], 1000 to 40000 nM on MAO-B and 100 to 1000 nM in assay [3].

Turning to `N#Cc1ccc(-c2ccc([C@H]3C[C@@H]3N)cn2)s1` (relative stereo) [Example 56, 5-(5-((trans)-2-aminocyclopropyl)pyridin-2-yl)thiophene-2-carbonitrile hydrochloride], the Ki lay within 1000 to 40000 nM at MAO-A [2], 1000 to 40000 nM at MAO-B and 1 to 100 nM in assay [3].

With `Cc1cscc1-c1ccc([C@H]2C[C@@H]2N)cn1` (relative stereo) [Example 57, (trans)-2-(6-(4-methylthiophen-3-yl)pyridin-3-yl)cyclopropanamine hydrochloride], the inhibition constant (Ki) was 1000 to 40000 nM at MAO-A [2], 1000 to 40000 nM at MAO-B and 100 to 1000 nM in assay [3].

Turning to `COc1cc(-c2ccc([C@H]3C[C@@H]3N)cn2)cc(F)c1F` (relative stereo) [Example 58, (Trans)-2-(6-(3,4-difluoro-5-methoxyphenyl)pyridin-3-yl)cyclopropanamine hydrochloride], the results for the inhibition constant (Ki) (at MAO-A [2]; on MAO-B; in assay [3]) were 1000 to 40000 nM, 1000 to 40000 nM and 100 to 1000 nM, respectively.

`Cl.N[C@H]1C[C@@H]1c1ccc(-c2ccc3cn[nH]c3c2)nc1` (relative stereo) [Example 60, (Trans)-2-(6-(1H-indazol-6-yl)pyridin-3-yl)cyclopropanamine hydrochloride]: the “LSD1 (Ki)” value in assay [1] is reported as “II-III”. In addition, the Ki at MAO-A [2] and on MAO-B was 1000 to 40000 nM throughout.

In the case of `N[C@H]1C[C@@H]1c1ccc(-c2ccc3c(c2)[nH]c2ccccc23)nc1` (relative stereo) [Example 61, (Trans)-2-(6-(9H-carbazol-2-yl)pyridin-3-yl)cyclopropanamine hydrochloride], the Ki (in assay [1]; at MAO-A [2]; at MAO-B) was 1000 to 40000 nM throughout.

Turning to `N[C@H]1C[C@@H]1c1ccc(-c2ccc3c(c2)NC(=O)C3)nc1` (relative stereo) [Example 62, 6-(5-((trans)-2-aminocyclopropyl)pyridin-2-yl)indolin-2-one hydrochloride], the figures for the inhibition constant (Ki) (on MAO-A [2]; at MAO-B; in assay [3]) were 1000 to 40000 nM, 1000 to 40000 nM and 100 to 1000 nM, respectively.

`CC(C)S(=O)(=O)Nc1cccc(-c2ccc([C@H]3C[C@@H]3N)cn2)c1` (relative stereo) [Example 65, N-(3-(5-((trans)-2-aminocyclopropyl)pyridin-2-yl)phenyl)propane-2-sulfonamide hydrochloride]: the Ki fell in the range of 1000 to 40000 nM at MAO-A [2], 1000 to 40000 nM on MAO-B and 1 to 100 nM in assay [3].

Consider `CS(=O)(=O)Nc1ccccc1-c1ccc([C@H]2C[C@@H]2N)cn1` (relative stereo) [Example 71, N-(2-(5-((trans)-2-aminocyclopropyl)pyridin-2-yl)phenyl)methanesulfonamide hydrochloride], for which the figures for the Ki (at MAO-A [2]; on MAO-B; in assay [3]) were 1000 to 40000 nM, 1000 to 40000 nM and 100 to 1000 nM, respectively.

With `COc1ccc(C#N)cc1-c1ccc([C@H]2C[C@@H]2N)cn1` (relative stereo) [Example 72, 3-(5-((trans)-2-aminocyclopropyl)pyridin-2-yl)-4-methoxybenzonitrile hydrochloride], the inhibition constant Ki is 1000 to 40000 nM on MAO-A [2], 1000 to 40000 nM on MAO-B and 100 to 1000 nM in assay [3].

Take `N[C@H]1C[C@@H]1c1ccc(-c2cccc(C(F)(F)F)c2)nc1Cl` (relative stereo) [Example 76, (trans)-2-(2-chloro-6-(3-(trifluoromethyl)phenyl)pyridin-3-yl)cyclopropanamine hydrochloride]: the inhibition constant Ki at MAO-A [2] lay in the range of 1000 to 40000 nM; on MAO-B, 1000 to 40000 nM; in assay [3] it was 100 to 1000 nM.

For the compound `Cc1nc(-c2cccc(C(F)(F)F)c2)ccc1[C@H]1C[C@@H]1N` (relative stereo) [Example 80, (trans)-2-(2-methyl-6-(3-(trifluoromethyl)phenyl)pyridin-3-yl)cyclopropanamine hydrochloride], the inhibition constant (Ki) was in the range of 1000 to 40000 nM on MAO-A [2], 1000 to 40000 nM on MAO-B and 100 to 1000 nM in assay [3].

The compound `N#Cc1ccc(O)c(-c2ccc([C@H]3C[C@@H]3N)cc2)c1` (relative stereo) [Example 87, 4′-((trans)-2-aminocyclopropyl)-6-hydroxybiphenyl-3-carbonitrile hydrochloride] showed a Ki on MAO-A [4] of 100 to 1000 nM.

Compound `N#Cc1ccc(O)c(-c2ccc([C@H]3C[C@@H]3N)cn2)c1` (relative stereo) [Example 89, 3-(5-((trans)-2-aminocyclopropyl)pyridin-2-yl)-4-hydroxybenzonitrile hydrochloride] registered a Ki at MAO-A [4] of 100 to 1000 nM.

As to `CS(=O)(=O)Nc1cc(Cl)cc(-c2ccc([C@H]3C[C@@H]3N)cn2)c1` (relative stereo) [Example 95, N-(3-(5-((trans)-2-aminocyclopropyl)pyridin-2-yl)-5-chlorophenyl)methanesulfonamide hydrochloride], the Ki at MAO-A [4] is 100 to 1000 nM.

Regarding `CS(=O)(=O)Nc1cc(-c2ccc([C@H]3C[C@@H]3N)cc2)ccc1F` (relative stereo) [Example 96, N-(4′-((trans)-2-aminocyclopropyl)-4-fluoro-[1,1′-biphenyl]-3-yl)methanesulfonamide hydrochloride], the inhibition constant (Ki) at MAO-B was in the range of 1000 to 40000 nM; in assay [3], 1 to 100 nM; on MAO-A [4], 100 to 1000 nM.

Consider `CS(=O)(=O)Nc1cc(-c2ccc([C@H]3C[C@@H]3N)cn2)ccc1F` (relative stereo) [Example 97, N-(5-(5-((trans)-2-aminocyclopropyl)pyridin-2-yl)-2-fluorophenyl)methanesulfonamide hydrochloride], for which the inhibitory constant (Ki) at MAO-A [2] lay in the range of 1000 to 40000 nM; at MAO-B, 1000 to 40000 nM; in assay [3], 100 to 1000 nM.

In the case of `CCS(=O)(=O)Nc1cccc(-c2ccc([C@H]3C[C@@H]3N)cn2)c1` (relative stereo) [Example 98, N-(3-(5-((trans)-2-aminocyclopropyl)pyridin-2-yl)phenyl)ethanesulfonamide hydrochloride], the Ki fell in the range of 1000 to 40000 nM at MAO-A [2], 1000 to 40000 nM on MAO-B and 1 to 100 nM in assay [3].

In turn, `N#Cc1cccc(S(=O)(=O)Nc2cccc(-c3ccc([C@H]4C[C@@H]4N)cn3)c2)c1` (relative stereo) [Example 100, N-(3-(5-((trans)-2-aminocyclopropyl)pyridin-2-yl)phenyl)-3-cyanobenzenesulfonamide hydrochloride] showed a Ki on MAO-A [4] of 100 to 1000 nM.

Consider `COc1cc(-c2cccc(O)c2)ccc1[C@H]1C[C@@H]1N` (relative stereo) [Example 106, 4′-((trans)-2-aminocyclopropyl)-3′-methoxy-[1,1′-biphenyl]-3-ol hydrochloride], for which the Ki at MAO-B was in the range of 1000 to 40000 nM; in assay [3], 100 to 1000 nM; at MAO-A [4], 100 to 1000 nM.

With `N[C@H]1C[C@@H]1c1cnc(-c2cccc(O)c2)s1` (relative stereo) [Example 116, 3-(5-((trans)-2-aminocyclopropyl)thiazol-2-yl)phenol hydrochloride], the Ki was in the range of 1000 to 40000 nM on MAO-B, 1 to 100 nM in assay [3] and 1 to 100 nM on MAO-A [4].

Turning to `N#Cc1ccccc1S(=O)(=O)Nc1cccc(-c2ncc([C@H]3C[C@@H]3N)s2)c1` (relative stereo) [Example 124, N-(3-(5-((trans)-2-aminocyclopropyl)thiazol-2-yl)phenyl)-2-cyanobenzenesulfonamide dihydrochloride], the Ki fell in the range of 1000 to 40000 nM at MAO-A [2], 1000 to 40000 nM at MAO-B and 1 to 100 nM in assay [3].

For the compound `CNS(=O)(=O)c1cccc(-c2ccc([C@H]3C[C@@H]3N)cn2)c1` [Example 104, hydrochloride], the Ki at MAO-B was 1000 to 40000 nM; on MAO-A [4], 100 to 1000 nM.
